A short description of one data set: in vivo. The note with it: po, mouse. From the text:
(§1) The anticonvulsive activity of the compounds of the formula I and their non-toxic acid addition salts, as well as of certain isomers and homologs described in the prior art, was as certained by the electroshock method of Tooman et al, J. Neurophysiol.

The next data set relates to mouse. The data set is described as follows: Anticonvulsive activity by the electroshock method of Tooman et al. Type of data set: in vivo. To be noted: Mus musculus, read-out: Anticonvulsive ED50.
Text: as §1

Test in data set [1]: as above
The data set is classed as in vivo, mouse. To be noted: in vivo; mouse; LD50 / ED50; read-out: Therapeutic ratio LD50 ED50.
Text: as §1

Data set [2] relates to warmblooded animals, such as rats and mice. In words: Pharmacodynamic properties (anticonvulsive, antiarrhythmic, sedative side effects) in warm-blooded animals. Type of data set: in vivo. To be noted: specific compounds.

Regarding `Cc1cccc(C)c1OCCN` [C, 2-(2',6'-xylyloxy)-ethylamine], the LD50 in “in vivo” was determined as 740 mg/kg. Also, the ED50 with mouse was found to be 115 mg/kg. Also, the selectivity ratio in data set [1] was determined as 6.4.
As to `Cc1cccc(C)c1OCC(C)N` (stereo not shown) [A, 1-(2',6'-dimethyl-phenoxy)-2-amino-propane], the effectiveness as anticonvulsives result in data set [2] was “especially effective”. In the data set on mouse, the ED50 was determined as 23 mg/kg.
For the compound `CCCC(N)COc1c(C)cccc1C` (stereo not shown) [1-(2',6'-dimethyl-phenoxy)-2-amino-pentane], in data set [2], the effectiveness as anticonvulsives result is given as “especially effective”.
The same measure, in the same setting: the value for `Cc1cccc(C)c1OCC(C)N.Cl` (stereo not shown) [Example 1, 1-(2',6'-dimethyl-phenoxy)-2-amino-propane hydrochloride] was “especially effective”.
The compound `CNCCOc1c(C)cccc1C` [B, n-methyl-2-(2',6'-xylyloxy)-ethylamine] returned an LD50 in “in vivo” of 216 mg/kg. For the same compound, the ED50 with mouse was determined as 80 mg/kg. The selectivity ratio in data set [1] was found to be 2.7.
Turning to `Cc1cccc(C)c1OCCCN` [D, 3-(2',6'-xylyloxy)-propylamine], the LD50 in the data set “in vivo” was 580 mg/kg. The ED50 in the data set with mouse is 216 mg/kg. Besides, in data set [1], the selectivity ratio worked out at 2.7.

Usually LD50 stands for the dose at which mortality reaches 50%. Read a high LD50 as a less toxic substance. As a reminder, the ED50 is the dose at which the effect has come halfway, by size or by number of responders.
